Key:
[1] = antioxidant property, banana peel test method; settings: 2×2 cm peels in 5 ml 0.1 M test solution; water control tan within 4 hours
Excerpt: (§1) An antioxidant may be defined as a substance capable of preventing or inhibiting oxidation. […] The antioxidant property is readily determined by using any one of the following test methods: prevention or retardation of air oxidation of (a) anthralin, (b) hydroquinone, or (c) banana peel. A freshly prepared anthralin solution or cream is bright yellow, and an air oxidized one is brownish or black. A hydroquinone solution or cream is colorless or white color, and an air oxidized one is brownish or black. A freshly peeled banana peel is light yellow in color and an oxidized one ranges in color from tan, dark tan, brown to brownish black.
For example, in control experiments, fresh banana peels cut into sizes of 1×2 cm in 50 mm plastic petri dishes containing 5 ml water at neutral or acidic pH changed in color from white-yellowish to tan within 6 hours at room temperature, and changed to dark tan color during the next period of 24 to 72 hours.
Antioxidant property of an oligosaccharide aldonic acid may also be determined by utilizing banana peel test method as follows.
A fresh ripe banana peel cut into sizes of 2×2 cm has the outer layer light yellow in color. These freshly cut banana peels after exposed to air or immersed in an aqueous solution without an antioxidant in 50 mm plastic petri dishes rapidly changed in color from yellowish to tan within 3 hours, dark tan within 24 hours and brown black after 72 hours. A test substance including a positive control such as vitamin C, citric acid or N-acetylcysteine was prepared as 0.1 M concentration, and each test dish contained 5 ml test solution. Freshly cut banana peels 2×2 cm in sizes were immersed in 5 ml test solutions including known antioxidants and vehicle controls with pH at 7.0 and 4.0. […] The same results were also found for the known antioxidant substances; vitamin C, citric acid and N-acetylcysteine.

[2] = antioxidant property, hydroquinone test method; assay type: physicochemical; settings: oil-in-water cream, 2% hydroquinone, test substance 0.4 M, room temperature, 5 days
Excerpt: as §1
Antioxidant property of an oligosaccharide aldonic acid may also be determined by utilizing hydroquinone test method as follows. Hydroquinone also known as 1,4-dihydroxybenzene is a white powder, and a composition containing hydroquinone without a suitable antioxidant is chemically unstable even at room temperature. For example, hydroquinone 2% in an oil-in-water cream changed in color from white to grey within 2 hours, and the cream became light brown within 48 hours and dark brown after 72 hours at room temperature.

[3] = gel matrix formation on evaporation of an aqueous solution at room temperature; assay type: physicochemical; settings: for gel matrix formation: 1 g in 1 ml water, 20-25° C., slow evaporation; for acid content of the gel film / water retained in the gel film (gel matrix): by weight, 1 g acid in 1 ml water evaporated at room temperature; for original water evaporated: 1 g acid in 1 ml water, room temperature
Excerpt: In contrast to an alpha hydroxyacid and polyhydroxyacid, an oligosaccharide aldonic acid can form a gel matrix when its aqueous solution is evaporated at room temperature. The transparent gel obtained retains certain amount of water forming a clear gel matrix. The amount of water retention depends on individual oligosaccharide aldonic acid. Examples of gel matrix preparations are provided below.
In one example, a gel matrix can be formed when aqueous solution comprising an oligosaccharide aldonic acid is evaporated at room temperature. The transparent gel thus obtained retains certain amount of water forming a clear gel matrix. The amount of water retention depends on individual oligosaccharide aldonic acid. For example, maltobionic acid 1 g in a beaker was dissolved in water 1 ml, and the solution thus obtained was left at room temperature. Fifty percent of the original water had been evaporated at the end of 24 hours, and 57% at the end of 48 hours, and 60% at the end of 72 hours, and no more or minimal evaporation of water could be detected after 72 hours. A clear gel film thus obtained contained 29% water complexed with maltobionic acid molecules. In the same manner, lactobionic acid formed a clear gel matrix with 14% water molecules and cellobionic acid formed a transparent gel with 7% water molecules.
A typical experiment to determine a gel matrix formation of an oligosaccharide aldonic acid may be carried out as follows.
Maltobionic acid 1 g in a beaker of 3.6 cm diameter and 3.6 cm height was dissolved in water 1 ml, and the solution thus obtained was left at room temperature between 20-25° C. to allow a slow evaporation of the water. […] The continuous transparent film thus obtained consisted of 71% maltobionic acid and 29% water by weight, and was formed as a complex gel matrix between maltobionic acid molecules and water molecules.

[4] = antioxidant property, anthralin test method; assay type: physicochemical; settings: oil-in-water cream, 0.4% anthralin, test substance 0.1 M, 24 hours
Excerpt: as §1
Antioxidant property of an oligosaccharide aldonic acid may be determined by utilizing anthralin test method as follows.
Anthralin also known as dithranol is a yellowish powder, and a composition containing anthralin without a suitable antioxidant is chemically unstable even at room temperature. For example, anthralin 0.05% in an oil-in-water cream changed in color from yellow to gray within 24 hours at room temperature, and the cream became brownish within 48 hours. Under anhydrous condition, anthralin 0.05% ointment prepared from white petrolatum 2 parts and mineral oil 1 part by weight changed in color from bright yellow to grayish yellow within 24 hours, and the ointment became brownish after 12 days at room temperature.
Based on the above observations, an oil-in-water cream containing 0.4% anthralin with or without a known antioxidant was used as a positive or vehicle control.

acute erythema on thighs = experiment: topical treatment of acute erythema after hot shower with alkaline soap; assay type: in vivo, human; settings: 3% partially neutralized cream, left thigh, person; control side persisted
Excerpt: A subject with sensitive skin developed acute erythema on their both thighs after taking hot shower using alkaline soap. They applied 3% partially neutralized maltobionic acid cream on their left thigh and a control cream on their right thigh.

[5] = tested on: xerosis with flaky dry skin; experiment: topical treatment of xerosis of forearms; assay type: in vivo, human; settings: 5% water-in-oil cream twice daily, two weeks, person
Excerpt: A subject, having xerosis with flaky dry skin condition of their forearms topically applied twice daily maltobionic acid 5% water-in-oil cream for two weeks.

[6] = tested on: chronic atopic eczema and pruritic dry skin; experiment: topical treatment of chronic atopic eczema and pruritic dry skin; assay type: in vivo, human; settings: 17% cream twice daily, person
Excerpt: A subject with chronic atopic eczema and pruritic dry skin topically applied twice daily maltobionic acid 17% cream to itchy skin areas of eczema and dry skin lesions for two weeks.

Row | gel matrix formation [3] | Compound | colour change of banana peels [1] | colour change of hydroquinone cream [2] | colour change of anthralin cream [4] | also measured
1 |  | CC(=O)N[C@@H](CS)C(=O)O [N-acetylcysteine, reference compound] | same results | did not change color |  | 
2 | clear continuous gel film was formed | O=C(O)[C@H](O)[C@@H](O)[C@H](O[C@@H]1O[C@H](CO)[C@@H](O)[C@H](O)[C@H]1O)[C@H](O)CO [cellobionic acid] |  | did not change color | did not change the color | acid content of the gel film [3]: 93%; water retained in the gel film (gel matrix) [3]: 7%
3 |  | O=C(O)CC(O)(CC(=O)O)C(=O)O [citric acid, reference compound] | same results | did not change color |  | 
4 | clear continuous gel film was formed | O=C(O)[C@H](O)[C@@H](O)[C@H](O[C@@H]1O[C@H](CO)[C@H](O)[C@H](O)[C@H]1O)[C@H](O)CO [maltobionic acid] | did not change color | did not change color | did not change the color | original water evaporated ([3]; end of 24 hours): Fifty; original water evaporated ([3]; end of 48 hours): 57%; original water evaporated ([3]; end of 72 hours): 60%; original water evaporated ([3]; end of 96 hours): 60.5%; water retained in the gel film (gel matrix) [3]: 29%; acid content of the gel film ([3]; listed as Maltobionic acid): 71%; water retained in the gel film (gel matrix) ([3]; listed as Maltobionic acid): 29%; erythema and itch (acute erythema on thighs): disappeared within a few minutes; dry skin condition [5]: dry skin condition disappeared completely; eczema lesions ([6]; after two weeks): improved significantly; condition of treated skin ([6]; within a week): became smooth and less dry and itchy
5 |  | O=C(O)C(=O)O [oxalic acid, reference compound] |  |  | did not change the color | 
6 |  | O=C1O[C@H]([C@@H](O)CO)C(O)=C1O [vitamin C, reference compound] | same results | did not change color | did not change the color | 

Row | Compound | gel matrix formation [3] | colour change of banana peels [1] | colour change of hydroquinone cream [2] | colour change of anthralin cream [4] | also measured
7 | O=C(O)[C@H](O)[C@@H](O)[C@H](O)[C@H](O)CO [gluconic acid, reference compound] | did not form any form of a gel matrix |  |  |  | 

Reference: patent publication US20120040920A1, “OLIGOSACCHARIDE ALDONIC ACIDS AND THEIR TOPICAL USE” (priority 1999, published 2012)
